pEC50: −log10 of the molar value.
Columns and labels:
[1] = system: Human immunodeficiency virus 1; assay: Antiviral activity against Human immunodeficiency virus 1 3B harboring integrase T206S mutant infected in human MT4 cells assessed as inhibition of virus induced cytopathic effect relative to wild type HIV1; assay type: functional
[2] = system: Human immunodeficiency virus 1; assay: Antiviral activity against Human immunodeficiency virus 1 clone 15_7 harboring integrase E11D, S17T, L45V, M50T, I72V, L74I, T97A, K111T, S119G, T125A infected in human MT4 cells assessed as inhibition of virus induced cytopathic effect relative to wild type HIV1; assay type: functional
[3] = system: Human immunodeficiency virus 1; assay: Antiviral activity against Human immunodeficiency virus 1 clone 13 harboring integrase R20K, A23V, T124N, G193E, V201I, T206S, I268V, I220V mutant gene relative to wild type HIV1; assay type: functional
[4] = system: Human immunodeficiency virus 1; assay: Antiviral activity against Human immunodeficiency virus 1 3B harboring integrase V201I mutant infected in human MT4 cells assessed as inhibition of virus induced cytopathic effect relative to wild type HIV1; assay type: functional
[5] = system: Human immunodeficiency virus 1; assay: Antiviral activity against Human immunodeficiency virus 1 3B harboring integrase V151I mutant infected in human MT4 cells assessed as inhibition of virus induced cytopathic effect relative to wild type HIV1; assay type: functional
[6] = system: Human immunodeficiency virus 1; assay: Antiviral activity against Human immunodeficiency virus 1 3B harboring integrase S230N mutant infected in human MT4 cells assessed as inhibition of virus induced cytopathic effect relative to wild type HIV1; assay type: functional
[7] = system: Human immunodeficiency virus 1; assay: Antiviral activity against Human immunodeficiency virus 1 3B harboring integrase L68V mutant infected in human MT4 cells assessed as inhibition of virus induced cytopathic effect relative to wild type HIV1; assay type: functional
[8] = system: Human immunodeficiency virus 1; assay: Antiviral activity against Human immunodeficiency virus 1 3B harboring integrase M154I mutant infected in human MT4 cells assessed as inhibition of virus induced cytopathic effect relative to wild type HIV1; assay type: functional
[9] = system: Human immunodeficiency virus 1; assay: Antiviral activity against Human immunodeficiency virus 1 clone 4 harboring integrase S17N, S57G, I84I, T124N, T125A, M154I, S195C mutant gene relative to wild type HIV1; assay type: functional
[10] = system: Human immunodeficiency virus 1; assay: Antiviral activity against Human immunodeficiency virus 1 clone 17 harboring integrase S17N, T124N, T125A, M154I, S195C mutant gene relative to wild type HIV1; assay type: functional
[11] = system: Human immunodeficiency virus 1; assay: Antiviral activity against Human immunodeficiency virus 1 clone 15 harboring integrase S17N, I84I, T124N, T125A, M154I, S195C mutant gene relative to wild type HIV1; assay type: functional
[12] = system: Human immunodeficiency virus 1; assay: Antiviral activity against Human immunodeficiency virus 1 clone 11 harboring integrase S17N, I84I, T124N, T125A, M154I, S195C mutant gene relative to wild type HIV1; assay type: functional
[13] = system: Human immunodeficiency virus 1; assay: Antiviral activity against Human immunodeficiency virus 1 3B infected in human MT4 cells assessed as inhibition of virus induced cytopathic effect; assay type: functional, organism-based
[14] = system: Human immunodeficiency virus 1; assay: Antiviral activity against Human immunodeficiency virus 1 clone 18_13 harboring integrase G140S mutant and G140S, Q148H site-directed mutation relative to wild type HIV1; assay type: functional
[15] = system: Human immunodeficiency virus 1; assay: Antiviral activity against Human immunodeficiency virus 1 clone 4 harboring integrase R20K, A23V, T124N, I141V, G193E, V201I, T206S, I220V, D279G mutant gene relative to wild type HIV1; assay type: functional
[16] = system: Human immunodeficiency virus 1; assay: Antiviral activity against Human immunodeficiency virus 1 3B harboring integrase T66I mutant infected in human MT4 cells assessed as inhibition of virus induced cytopathic effect relative to wild type HIV1; assay type: functional
[17] = system: Human immunodeficiency virus 1; assay: Antiviral activity against Human immunodeficiency virus 1 clone 19 harboring integrase R20K, A23V, G70E, T124N, I141V, G193E, V201I, T206S, I220V mutant gene relative to wild type HIV1; assay type: functional
[18] = system: Human immunodeficiency virus 1; assay: Antiviral activity against Human immunodeficiency virus 1 clone 8 harboring integrase E11D, S17T, L45V, M50T, S57G, L74I, K111T, S119G, T125A relative to wild type HIV1; assay type: functional
[19] = system: Human immunodeficiency virus 1; assay: Antiviral activity against Human immunodeficiency virus 1 clone 9 harboring integrase E11D, S17T, L45V, M50T, I72V, L74I, K111T, S119G, relative to wild type HIV1; assay type: functional
[20] = system: Human immunodeficiency virus 1; assay: Antiviral activity against Human immunodeficiency virus 1 3B harboring integrase S119G mutant infected in human MT4 cells assessed as inhibition of virus induced cytopathic effect relative to wild type HIV1; assay type: functional
[21] = system: Human immunodeficiency virus 1; assay: Antiviral activity against Human immunodeficiency virus 1 clone 7 harboring integrase E11D, S17T, L45V, M50T, I72V, L74I, K111T, T125A relative to wild type HIV1; assay type: functional
[22] = system: Human immunodeficiency virus 1; assay: Antiviral activity against Human immunodeficiency virus 1 3B harboring integrase L74I mutant infected in human MT4 cells assessed as inhibition of virus induced cytopathic effect relative to wild type HIV1; assay type: functional
[23] = system: Human immunodeficiency virus 1; assay: Antiviral activity against Human immunodeficiency virus 1 clone 13 harboring integrase E11D, S17T, L45V, M50T, I72V, L74I, K111T, S119G, T125A relative to wild type HIV1; assay type: functional
[24] = system: Human immunodeficiency virus 1; assay: Antiviral activity against Human immunodeficiency virus 1 3B harboring integrase E157Q mutant infected in human MT4 cells assessed as inhibition of virus induced cytopathic effect relative to wild type HIV1; assay type: functional

Row | Structure (SMILES) | fold change (FC) [2] | fold change (FC) [3] | fold change (FC) [7] | fold change (FC) [8] | fold change (FC) [11] | pEC50 [13] | fold change (FC) [14] | fold change (FC) [15] | fold change (FC) [16] | fold change (FC) [17] | fold change (FC) [20] | fold change (FC) [21] | further results
1 | COc1cc2c(cc1Cc1cccc(Cl)c1F)c(=O)c(C(=O)O)cn2[C@H](CO)C(C)C [ELVITEGRAVIR] | 2.7 | 0.8 | 1.1 | 1 | 0.6 | 7.94 | >633.7 | 0.7 | 10.5 | 1.1 | 1 | 2.7 | fold change (FC) [1]: 1.1; fold change (FC) [4]: 0.9; fold change (FC) [5]: 0.6; fold change (FC) [6]: 0.8; fold change (FC) [9]: 1.4; fold change (FC) [10]: 1; fold change (FC) [12]: 0.9; fold change (FC) [18]: 0.8; fold change (FC) [19]: 1
2 | Cc1nnc(C(=O)NC(C)(C)c2nc(C(=O)NCc3ccc(F)cc3)c(O)c(=O)n2C)o1 [RALTEGRAVIR] | 1.5 | 0.8 | 0.4 | 0.8 | 0.7 | 8.21 | 768 | 0.2 | 0.8 | 1.2 | 1.1 | 1.5 | fold change (FC) [22]: 1.2; fold change (FC) [23]: 2; fold change (FC) [24]: 1.2

— ChEMBL document CHEMBL1687760, “Secondary integrase resistance mutations found in HIV-1 minority quasispecies in integrase therapy-naive patients have little or no effect on susceptibility to integrase inhibitors” (Antimicrob Agents Chemother, 2010)
